pIC50: −log10 of the molar value.
Test system: SUM149PT spheroids with HUVEC/MSC, viability
Experiment: Anticancer human tumor SUM149PT cell line growth inhibition [GQUAD];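 further: spheroids exposed to drugs for seven days before readout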;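 on viability, T/C: percent viability relative to DMSO vehicle control taken as 100%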
Details: for pIC50: curve of first compound; for viability, T/C: stronger effect = lower value
In short: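 Tumor cells were grown as complex spheroids with HUVEC endothelial cells and mesenchymal stem cells as stroma. G-quadruplex stabilizers were combined with targeted agents over half-log dilutions from near the clinical Cmax, or from 10 microM.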

[1] = second compound 0.0316 µM, first compound 0.0316 µM
[2] = second compound 0.0316 µM, first compound 0.1 µM
[3] = second compound 0.0316 µM, first compound 0.316 µM
[4] = second compound 0.0316 µM, first compound 1 µM
[5] = second compound 0.0316 µM, first compound 3.16 µM
[6] = second compound 0.0316 µM, first compound 10 µM
[7] = second compound 0.1 µM, first compound 0.0316 µM
[8] = second compound 0.1 µM, first compound 0.1 µM
[9] = second compound 0.1 µM, first compound 0.316 µM
[10] = second compound 0.1 µM, first compound 1 µM
[11] = second compound 0.1 µM, first compound 3.16 µM
[12] = second compound 0.1 µM, first compound 10 µM
[13] = second compound 0.316 µM, first compound 0.0316 µM
[14] = second compound 0.316 µM, first compound 0.1 µM
[15] = second compound 0.316 µM, first compound 0.316 µM
[16] = second compound 0.316 µM, first compound 1 µM
[17] = second compound 0.316 µM, first compound 3.16 µM
[18] = second compound 0.316 µM, first compound 10 µM
[19] = second compound 1 µM, first compound 0.0316 µM
[20] = second compound 1 µM, first compound 0.1 µM
[21] = second compound 1 µM, first compound 0.316 µM
[22] = second compound 1 µM, first compound 1 µM
[23] = second compound 1 µM, first compound 3.16 µM
[24] = second compound 1 µM, first compound 10 µM
[25] = second compound 3.16 µM, first compound 0.0316 µM
[26] = second compound 3.16 µM, first compound 0.1 µM
[27] = second compound 3.16 µM, first compound 0.316 µM
[28] = second compound 3.16 µM, first compound 1 µM
[29] = second compound 3.16 µM, first compound 3.16 µM
[30] = second compound 3.16 µM, first compound 10 µM
[31] = second compound 10 µM, first compound 0.0316 µM
[32] = second compound 10 µM, first compound 0.1 µM
[33] = second compound 10 µM, first compound 0.316 µM
[34] = second compound 10 µM, first compound 1 µM
[35] = second compound 10 µM, first compound 3.16 µM
[36] = second compound 10 µM, first compound 10 µM

C=CC(=O)N1CCN(c2nc(=O)n(-c3c(C)ccnc3C(C)C)c3nc(-c4c(O)cccc4F)c(F)cc23)C(C)C1 (centres undefined) + Cc1[nH]c2ccc(F)cc2c1-c1nc2c3cccnc3c3ncccc3c2[nH]1
pIC50 (second compound 0.0316 µM): < 5.00
pIC50 (second compound 0.1 µM): < 5.00
pIC50 (second compound 0.316 µM): < 5.00
pIC50 (second compound 1 µM): < 5.00
pIC50 (second compound 3.16 µM): < 5.00
pIC50 (second compound 10 µM): < 5.00
viability, T/C [1]: 106%
viability, T/C [2]: 91.6%
viability, T/C [3]: 99.1%
viability, T/C [4]: 108%
viability, T/C [5]: 125%
viability, T/C [6]: 117%
viability, T/C [7]: 116%
viability, T/C [8]: 93.8%
viability, T/C [9]: 111%
viability, T/C [10]: 116%
viability, T/C [11]: 124%
viability, T/C [12]: 114%
viability, T/C [13]: 94.3%
viability, T/C [14]: 107%
viability, T/C [15]: 95.6%
viability, T/C [16]: 112%
viability, T/C [17]: 122%
viability, T/C [18]: 108%
viability, T/C [19]: 97.9%
viability, T/C [20]: 97.6%
viability, T/C [21]: 112%
viability, T/C [22]: 118%
viability, T/C [23]: 120%
viability, T/C [24]: 114%
viability, T/C [25]: 99.7%
viability, T/C [26]: 86%
viability, T/C [27]: 102%
viability, T/C [28]: 109%
viability, T/C [29]: 115%
viability, T/C [30]: 114%
viability, T/C [31]: 92%
viability, T/C [32]: 80.6%
viability, T/C [33]: 100%
viability, T/C [34]: 106%
viability, T/C [35]: 111%
viability, T/C [36]: 114%

COc1ncnc(C2CC2)c1-c1ncc2cnn(Cc3ccc(-c4nc(C(F)(F)F)cn4C(C)C)cc3)c2n1 + Cc1[nH]c2ccc(F)cc2c1-c1nc2c3cccnc3c3ncccc3c2[nH]1
pIC50 (second compound 0.0316 µM): < 5.00
pIC50 (second compound 0.1 µM): < 5.00
pIC50 (second compound 0.316 µM): < 5.00
pIC50 (second compound 1 µM): < 5.00
pIC50 (second compound 3.16 µM): < 5.00
pIC50 (second compound 10 µM): < 5.00
viability, T/C [1]: 106%
viability, T/C [2]: 87.2%
viability, T/C [3]: 92.7%
viability, T/C [4]: 92.4%
viability, T/C [5]: 91.6%
viability, T/C [6]: 95.4%
viability, T/C [7]: 103%
viability, T/C [8]: 104%
viability, T/C [9]: 87.2%
viability, T/C [10]: 90.1%
viability, T/C [11]: 91.2%
viability, T/C [12]: 94.3%
viability, T/C [13]: 97.4%
viability, T/C [14]: 97.6%
viability, T/C [15]: 68.9%
viability, T/C [16]: 93%
viability, T/C [17]: 97.8%
viability, T/C [18]: 94.6%
viability, T/C [19]: 98.1%
viability, T/C [20]: 98.1%
viability, T/C [21]: 92.3%
viability, T/C [22]: 92.2%
viability, T/C [23]: 90.1%
viability, T/C [24]: 95.3%
viability, T/C [25]: 97.4%
viability, T/C [26]: 89.6%
viability, T/C [27]: 86.1%
viability, T/C [28]: 82.3%
viability, T/C [29]: 89.4%
viability, T/C [30]: 89.2%
viability, T/C [31]: 91.8%
viability, T/C [32]: 91.4%
viability, T/C [33]: 85.4%
viability, T/C [34]: 83.7%
viability, T/C [35]: 90.8%
viability, T/C [36]: 92.5%
